Several values for one entry are separate records, joined by “and”; a condition that tells them apart may be missing. Equal values may be shown once.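 Where inhibition never reached the appropriate level, the endpoint shown equals the highest concentration tested. Otherwise, values were interpolated linearly from a five-concentration, 48-hour dose response in 96-well plates. GI50: concentration for 50% inhibition of growth. TGI is the concentration that stops growth completely.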
Experiments:
Assay in all cases: growth of human tumour cells (NCI), 48 h
ACHN renal = system: ACHN renal
CAKI-1 renal = system: CAKI-1 renal
CCRF-CEM leukemia = system: CCRF-CEM leukemia
OVCAR-5 ovarian = system: OVCAR-5 ovarian
SF-268 CNS = system: SF-268 CNS
SF-295 CNS = system: SF-295 CNS
SK-MEL-5 melanoma = system: SK-MEL-5 melanoma
SN12C renal = system: SN12C renal
SW-620 colon = system: SW-620 colon
UACC-62 melanoma = system: UACC-62 melanoma

| SMILES | TGI (ACHN renal) | TGI (CAKI-1 renal) | TGI (CCRF-CEM leukemia) | TGI (OVCAR-5 ovarian) | TGI (SF-268 CNS) | TGI (SF-295 CNS) | TGI (SK-MEL-5 melanoma) | TGI (SN12C renal) | TGI (SW-620 colon) | TGI (UACC-62 melanoma) | GI50 (ACHN renal) | GI50 (CAKI-1 renal) | GI50 (CCRF-CEM leukemia) | GI50 (OVCAR-5 ovarian) | GI50 (SF-268 CNS) | GI50 (SF-295 CNS) | GI50 (SK-MEL-5 melanoma) | GI50 (SN12C renal) | GI50 (SW-620 colon) | GI50 (UACC-62 melanoma) |
| --- | --- | --- | --- | --- | --- | --- | --- | --- | --- | --- | --- | --- | --- | --- | --- | --- | --- | --- | --- | --- |
| CC1(c2ccccc2)CC(c2ccccc2)=NO1 (centres undefined) | > 100 µM | > 100 µM | > 100 µM | > 100 µM | > 100 µM | > 100 µM | > 100 µM | > 100 µM | > 100 µM | > 100 µM | – | – | – | – | – | – | – | – | – | – |
| OB1OCc2cc(/C=C/c3cccc(C(F)(F)F)c3)ccc21 | 1.34 µM | 10.2 µM | 33.7 µM | > 100 µM | 48.1 µM | 16.1 µM | 81.4 µM | > 100 µM | > 100 µM | 63.4 µM | 0.332 µM | 0.349 µM | 0.459 µM | 5.15 µM | 0.564 µM | 0.432 µM | 2.05 µM | 1.46 µM | 1.57 µM | 0.551 µM |
| O=C/C(=C(/Cl)c1ccc(O)cc1)c1ccccc1 | 50.2 µM | > 56.8 µM | > 100 µM | > 100 µM | 77.8 µM | > 72.2 µM | 48.9 µM | > 61.3 µM | > 68 µM | 22 µM | – | – | – | – | – | – | – | – | – | – |
| O=C1C2=C(c3ccccc31)C(c1ccccc1Cl)N1C(=O)CCSC1=N2 (centres undefined) | > 100 µM | > 100 µM | > 100 µM | > 100 µM | > 100 µM | > 100 µM | > 100 µM | > 100 µM | > 100 µM | > 100 µM | – | – | – | – | – | – | – | – | – | – |
| Cl[Si]1(Cl)Oc2ccccc2O[Si](Cl)(Cl)Oc2ccccc2O1 | > 100 µM | 97.5 µM | 10.5 µM | > 100 µM | > 100 µM | 98.2 µM | 27 µM | > 100 µM | 54.5 µM | 20.9 µM | – | – | – | – | – | – | – | – | – | – |
| Cc1ncc(C(=O)Nc2ccc(CN3CCN(C)CC3)c(C(F)(F)F)c2)cc1C#Cc1cnc(NC2CC2)c2ncccc12 | 1.04 µM | 3.47 µM | 1.46 µM | 1.32 µM | 1.48 µM | 1.68 µM | 1.04 µM | 3.32 µM | 1.33 µM | 2.38 µM | 0.577 µM | 1.66 µM | 0.614 µM | 0.668 µM | 0.755 µM | 0.747 µM | 0.546 µM | 1.67 µM | 0.714 µM | 0.874 µM |
| CCOC(=O)c1ccc(N[C@@H]2c3cc4c(cc3C(C3=CC(=O)C(=O)C(OC)=C3)[C@H]3C(=O)OCC32)OCO4)cc1 (some centres undefined) | 3.86 µM | 11.5 µM | > 28.1 µM | 36.1 µM | 10.4 µM | 6.87 µM | 11.7 µM | > 21.1 µM | 20.1 µM | 7.69 µM | – | – | – | – | – | – | – | – | – | – |
| CCN(CC)CC(=O)N1CCc2c([nH]c3ccccc23)C1c1cccnc1 (centres undefined) | > 100 µM | > 100 µM | > 100 µM | > 100 µM | > 100 µM | > 100 µM | > 100 µM | > 100 µM | > 100 µM | > 100 µM | – | – | – | – | – | – | – | – | – | – |
| CCC1=C[C@@H]2CN(C1)Cc1c([nH]c3ccccc13)[C@@](C(=O)OC)(c1cc3c(cc1OC)N(C)[C@H]1[C@@](O)(C(=O)OC)[C@H](OC(C)=O)[C@]4(CC)[C@@H]5C[C@@H]5CN5CC[C@]31[C@@H]54)C2 | 7.79 µM and 26.2 µM | 6.17 µM and 20.5 µM | – | 16.9 µM and 73.9 µM | 8.94 µM and 12.8 µM | < 0.005 µM and 0.011 µM | 0.327 µM and 1.77 µM | 7.54 µM and 18.5 µM | 9.16 µM and 21 µM | 6.39 µM and 16.9 µM | 0.0191 µM and 0.168 µM | 0.0319 µM and 0.0818 µM | < 0.005 µM | – | < 0.005 µM and 0.0151 µM | < 0.005 µM | < 0.005 µM and 0.017 µM | – | < 0.005 µM | < 0.005 µM |
| CCN(CC)CCNC(=O)c1c(C)[nH]c(/C=C2\C(=O)Nc3ccc(F)cc32)c1C | > 10 µM and 6.48 µM and 9.5 µM | > 10 µM and 20 µM and 6.77 µM | > 10 µM and 20 µM and 8.85 µM | > 10 µM and 8.72 µM and 18.1 µM | > 10 µM and 6.09 µM and 16.9 µM | > 10 µM and 8.23 µM and 24.1 µM | 4.5 µM and 5.62 µM and 2.92 µM | > 10 µM and 20 µM and 16.2 µM | 7.67 µM and 5.22 µM and 4.22 µM | > 10 µM and 6.98 µM and 10.9 µM | 1.77 µM and 1.53 µM and 1.32 µM | 1.07 µM and 1.04 µM and 0.794 µM | 5.62 µM and 6.48 µM and 1.89 µM | 4.1 µM and 2.35 µM and 3.57 µM | > 10 µM and 2.73 µM and 4.57 µM | > 10 µM and 4.09 µM and 10.2 µM | 1.66 µM and 2.88 µM and 1.5 µM | 1.95 µM and 1.24 µM and 2.23 µM | 1.76 µM and 1.95 µM and 1.4 µM | > 10 µM and 3.26 µM and 4.12 µM |
| CCCCCCCCCCCC[n+]1ccccc1 (tested in a mixture with another compound) | 14.1 µM | 9.03 µM | 4.53 µM | 5.85 µM | 3.44 µM | 2.52 µM | 1.36 µM | 3.43 µM | 10.5 µM | 2.54 µM | 2.25 µM | 1.01 µM | 0.724 µM | 1.03 µM | 1.2 µM | 0.712 µM | 0.342 µM | 1.19 µM | 1.57 µM | 1.09 µM |
| C=C1CC2(OC1=O)C(=O)N(CCCN1C(=O)C3(CC(=C)C(=O)O3)c3ccccc31)c1ccccc12 (centres undefined) | 2.36 µM | 2.39 µM | 2.5 µM | 4.55 µM | 12 µM | 26 µM | 16.7 µM | 6.26 µM | 2.08 µM | 3.11 µM | 1.15 µM | 1.17 µM | 0.416 µM | 2.07 µM | 3.32 µM | 13.2 µM | 4.96 µM | 2.29 µM | 0.594 µM | 1.54 µM |
| O=S(=O)(CCOCc1ccc(-c2ccc3ncnc(Nc4ccc(OCc5cccc(F)c5)c(Cl)c4)c3c2)o1)c1ccccc1 | > 25 µM | > 25 µM | > 25 µM | > 25 µM | > 25 µM | > 25 µM | > 25 µM | > 25 µM | > 25 µM | > 25 µM | 1.86 µM | 0.831 µM | > 25 µM | > 25 µM | > 25 µM | > 25 µM | > 25 µM | > 25 µM | > 25 µM | > 25 µM |
| CC1(C)N=C(N)N=C(N)N1c1ccc(OCC(=O)Nc2ccccc2)c(Cl)c1 | > 100 µM | > 100 µM | > 100 µM | > 100 µM | > 100 µM | > 100 µM | > 100 µM | > 100 µM | > 100 µM | > 100 µM | 62.9 µM | > 85.9 µM | 2.17 µM | > 100 µM | 0.677 µM | 0.702 µM | 1.08 µM | 0.647 µM | 0.456 µM | 0.569 µM |
| Cc1ccc2nc3c(Cl)c(C)c(=O)cc-3sc2c1 | > 100 µM | > 100 µM | > 100 µM | > 100 µM | > 100 µM | > 100 µM | > 100 µM | > 100 µM | > 100 µM | > 1 µM and 92.2 µM | 39.7 µM | > 100 µM | 30.5 µM | 73.7 µM | 43.6 µM | – | – | 69 µM | – | 27.8 µM |

— PubChem BioAssay (NCI)
